Assay results: PubChem BioAssay (NCI)
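Briefly, cells in 96-well plates were exposed to five compound concentrations for 48 h, and endpoints were estimated by linear interpolation. The concentration for 50% growth inhibition is given as GI50. TGI: total growth inhibition.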

Assays:
Assay in all cases: DTP human tumour cell line panel, 48 h
NCI-H522 lung = system: NCI-H522 lung
M14 melanoma = system: M14 melanoma
HOP-92 NSCLC = system: HOP-92 NSCLC
SNB-75 CNS = system: SNB-75 CNS
OVCAR-5 ovarian = system: OVCAR-5 ovarian
CCRF-CEM leukemia = system: CCRF-CEM leukemia
SF-295 CNS = system: SF-295 CNS
SNB-19 CNS = system: SNB-19 CNS
RXF 393 renal = system: RXF 393 renal
SK-MEL-5 melanoma = system: SK-MEL-5 melanoma
DU-145 prostate = system: DU-145 prostate
786-0 renal = system: 786-0 renal
SK-OV-3 ovarian = system: SK-OV-3 ovarian
BT-549 breast = system: BT-549 breast
MOLT-4 leukemia = system: MOLT-4 leukemia
A498 renal = system: A498 renal
HCT-15 colon = system: HCT-15 colon
HL-60(TB) leukemia = system: HL-60(TB) leukemia
A549 NSCLC = system: A549 NSCLC
UO-31 renal = system: UO-31 renal
SF-268 CNS = system: SF-268 CNS
OVCAR-8 ovarian = system: OVCAR-8 ovarian
OVCAR-4 ovarian = system: OVCAR-4 ovarian
SW-620 colon = system: SW-620 colon
SN12C renal = system: SN12C renal
COLO 205 colon = system: COLO 205 colon
KM12 colon = system: KM12 colon
SR leukemia = system: SR leukemia
T-47D breast = system: T-47D breast
OVCAR-3 ovarian = system: OVCAR-3 ovarian
EKVX NSCLC = system: EKVX NSCLC
HCC-2998 colon = system: HCC-2998 colon
UACC-62 melanoma = system: UACC-62 melanoma
IGROV1 ovarian = system: IGROV1 ovarian
MALME-3M melanoma = system: MALME-3M melanoma
MCF7 breast = system: MCF7 breast
TK-10 renal = system: TK-10 renal
ACHN renal = system: ACHN renal
MDA-MB-435 = system: MDA-MB-435
SF-539 CNS = system: SF-539 CNS
HS 578T breast = system: HS 578T breast
NCI-H23 lung = system: NCI-H23 lung
CAKI-1 renal = system: CAKI-1 renal
UACC-257 melanoma = system: UACC-257 melanoma
K-562 leukemia = system: K-562 leukemia
PC-3 prostate = system: PC-3 prostate
NCI-H226 lung = system: NCI-H226 lung
NCI/ADR-RES ovarian = system: NCI/ADR-RES ovarian
HCT-116 colon = system: HCT-116 colon
LOX IMVI melanoma = system: LOX IMVI melanoma
SK-MEL-28 melanoma = system: SK-MEL-28 melanoma
HT29 colon = system: HT29 colon
NCI-H460 lung = system: NCI-H460 lung
MDA-MB-231 breast = system: MDA-MB-231 breast
MDA-MB-468 breast = system: MDA-MB-468 breast
HOP-62 NSCLC = system: HOP-62 NSCLC
U251 CNS = system: U251 CNS

Question: What does the source list for `CC[C@]12C=CCN3CC[C@@]4(c5ccc(OC)cc5N(C)[C@H]4[C@@](O)(C(=O)OC)[C@@H]1OC(=O)CCC[P+](c1ccc(OC)cc1)(c1ccc(OC)cc1)c1ccc(OC)cc1)[C@@H]32`?
Answer: GI50 (NCI-H522 lung): 0.334 µM; TGI (NCI-H522 lung): 1.18 µM; GI50 (M14 melanoma): 0.638 µM; TGI (M14 melanoma): 1.87 µM; GI50 (HOP-92 NSCLC): 0.279 µM; TGI (HOP-92 NSCLC): 1.08 µM; GI50 (SNB-75 CNS): 0.178 µM; TGI (SNB-75 CNS): 0.735 µM; GI50 (OVCAR-5 ovarian): 0.686 µM; TGI (OVCAR-5 ovarian): 2.21 µM; GI50 (CCRF-CEM leukemia): 0.582 µM; TGI (CCRF-CEM leukemia): 2.02 µM; GI50 (SF-295 CNS): 1.25 µM; TGI (SF-295 CNS): 3.03 µM; GI50 (SNB-19 CNS): 0.341 µM; TGI (SNB-19 CNS): 1.35 µM; GI50 (RXF 393 renal): 0.362 µM; TGI (RXF 393 renal): 1.34 µM; GI50 (SK-MEL-5 melanoma): 0.722 µM; TGI (SK-MEL-5 melanoma): 1.87 µM; GI50 (DU-145 prostate): 0.635 µM; TGI (DU-145 prostate): 4.34 µM; GI50 (786-0 renal): 1.53 µM; TGI (786-0 renal): 3.37 µM; GI50 (SK-OV-3 ovarian): 0.595 µM; TGI (SK-OV-3 ovarian): 1.68 µM; GI50 (BT-549 breast): 0.532 µM; TGI (BT-549 breast): 1.35 µM; GI50 (MOLT-4 leukemia): 0.621 µM; TGI (MOLT-4 leukemia): 2.38 µM; GI50 (A498 renal): 2.02 µM; TGI (A498 renal): 5.67 µM; GI50 (HCT-15 colon): 2.51 µM; TGI (HCT-15 colon): 7 µM; GI50 (HL-60(TB) leukemia): 0.237 µM; TGI (HL-60(TB) leukemia): 0.8 µM; GI50 (A549 NSCLC): 0.591 µM; TGI (A549 NSCLC): 4.39 µM; GI50 (UO-31 renal): 3.09 µM; TGI (UO-31 renal): 15.5 µM; GI50 (SF-268 CNS): 0.318 µM; TGI (SF-268 CNS): 1.46 µM; GI50 (OVCAR-8 ovarian): 1.42 µM; TGI (OVCAR-8 ovarian): 3.87 µM; GI50 (OVCAR-4 ovarian): 0.537 µM; TGI (OVCAR-4 ovarian): 3.44 µM; GI50 (SW-620 colon): 0.557 µM; TGI (SW-620 colon): 2.05 µM; GI50 (SN12C renal): 0.458 µM; TGI (SN12C renal): 1.51 µM; GI50 (COLO 205 colon): 0.192 µM; TGI (COLO 205 colon): 0.369 µM; GI50 (KM12 colon): 0.464 µM; TGI (KM12 colon): 1.56 µM; GI50 (SR leukemia): 0.397 µM; TGI (SR leukemia): 1.78 µM; GI50 (T-47D breast): 0.309 µM; TGI (T-47D breast): 1.6 µM; GI50 (OVCAR-3 ovarian): 0.422 µM; TGI (OVCAR-3 ovarian): 1.57 µM; GI50 (EKVX NSCLC): 0.737 µM; TGI (EKVX NSCLC): 3.35 µM; GI50 (HCC-2998 colon): 0.446 µM; TGI (HCC-2998 colon): 1.57 µM; GI50 (UACC-62 melanoma): 0.396 µM; TGI (UACC-62 melanoma): 1.17 µM; GI50 (IGROV1 ovarian): 0.455 µM; TGI (IGROV1 ovarian): 1.6 µM; GI50 (MALME-3M melanoma): 0.224 µM; TGI (MALME-3M melanoma): 0.536 µM; GI50 (MCF7 breast): 0.383 µM; TGI (MCF7 breast): 1.43 µM; GI50 (TK-10 renal): 1.4 µM; TGI (TK-10 renal): 2.87 µM; GI50 (ACHN renal): 2.76 µM; TGI (ACHN renal): 7.89 µM; GI50 (MDA-MB-435): 0.381 µM; TGI (MDA-MB-435): 1.42 µM; GI50 (SF-539 CNS): 0.622 µM; TGI (SF-539 CNS): 1.67 µM; GI50 (HS 578T breast): 1.18 µM; TGI (HS 578T breast): 3.97 µM; GI50 (NCI-H23 lung): 0.472 µM; TGI (NCI-H23 lung): 1.66 µM; GI50 (CAKI-1 renal): 4.36 µM; TGI (CAKI-1 renal): 9.19 µM; GI50 (UACC-257 melanoma): 0.489 µM; TGI (UACC-257 melanoma): 1.76 µM; GI50 (K-562 leukemia): 0.556 µM; TGI (K-562 leukemia): 2.13 µM; GI50 (PC-3 prostate): 0.414 µM; TGI (PC-3 prostate): 2.15 µM; GI50 (NCI-H226 lung): 1.43 µM; TGI (NCI-H226 lung): 3.87 µM; GI50 (NCI/ADR-RES ovarian): 18.1 µM; TGI (NCI/ADR-RES ovarian): 49.7 µM; GI50 (HCT-116 colon): 0.469 µM; TGI (HCT-116 colon): 1.66 µM; GI50 (LOX IMVI melanoma): 0.49 µM; TGI (LOX IMVI melanoma): 1.59 µM; GI50 (SK-MEL-28 melanoma): 0.477 µM; TGI (SK-MEL-28 melanoma): 1.64 µM; GI50 (HT29 colon): 0.284 µM; TGI (HT29 colon): 0.859 µM; GI50 (NCI-H460 lung): 0.666 µM; TGI (NCI-H460 lung): 2.36 µM; GI50 (MDA-MB-231 breast): 0.254 µM; TGI (MDA-MB-231 breast): 0.654 µM; GI50 (MDA-MB-468 breast): 0.166 µM; TGI (MDA-MB-468 breast): 0.491 µM; GI50 (HOP-62 NSCLC): 1.04 µM; TGI (HOP-62 NSCLC): 2.67 µM; GI50 (U251 CNS): 0.36 µM; TGI (U251 CNS): 1.37 µM
